This note sets out measurements from ChEMBL document CHEMBL6103632, “Seven New Guanidine Derivatives and One New Hypoxanthine Derivative Isolated from the Scorpion Buthus martensii and Potential Anti-Neuroinflammatory Activity” (J Nat Prod, 2025).

Series [1] can be described thus: Cytotoxicity against mouse BV-2 cells assessed as cell viability at 20 uM incubated for 24 hr by CCK-8 assay. The series is classed as toxicity, cell-based. Conditions: read-out: Activity.
Series [2] relates to BV-2. The series is described as follows: Antineuroinflammatory activity in LPS-induced mouse BV-2 cells assessed as reduction in ROS level pretreated with LPS for 4 hrs followed by compound treatment for 24 hrs by ROS probe based microscopy. The series is classed as functional, cell-based. The settings on record: dose 20.0 µM.
For the next series, the system named is Mitochondrial membrane. The series is described as follows: Induction of mitochondrial membrane potential in LPS-induced mouse BV-2 cells assessed as reduction in ratio of red to green fluorescence intensity at 20 uM pretreated with LPS for 4 hrs followed by compound treatment for 24 hrs by JC-1 staining based assay. The series is classed as cell membranes.

In series [3] the test system is BV-2. Description: Antineuroinflammatory activity in LPS-induced mouse BV-2 cells assessed as reduction in IL-1beta level at 20 uM pretreated with LPS for 4 hrs followed by compound treatment for 24 hrs by ELISA analysis. The series is classed as functional, cell-based.
In series [4] the test system is BV-2. The series is described as follows: Antineuroinflammatory activity in LPS-induced mouse BV-2 cells assessed as reduction in IL-6 level at 20 uM pretreated with LPS for 4 hrs followed by compound treatment for 24 hrs by ELISA analysis. The series is classed as functional, cell-based.
In series [5] the test system is BV-2. The series is described as follows: Antineuroinflammatory activity in LPS-induced mouse BV-2 cells assessed as reduction in TNF-alpha level at 20 uM pretreated with LPS for 4 hrs followed by compound treatment for 24 hrs by ELISA analysis. The series is classed as functional, cell-based.

Activity calls are given as the source filed them. The rule behind the calls is not given here.

`CCC/C=C/C(=O)NCCCCNC(=N)N`: in series [1], the viability at 24 h, 20 µM was over 75%. Turning to `N=C(N)NCCCCNC(=O)Cc1cc(Cl)c(O)c(Cl)c1`, the viability at 24 h, 20 µM in series [1] is over 75%. Consider `N=C(N)NCCCCn1cnc2ccccc2c1=O`, for which the viability at 24 h, 20 µM in series [1] was over 75%.

Take `N=C(N)NCCCCNC(=O)c1cccnc1`: the viability at 24 h, 20 µM in series [1] was over 75%. `COc1ccc2[nH]cc(CCNC(C)=O)c2c1`: the Activity result in the series on BV-2 [2] is “Dose-dependent-effect”.

In the case of `N=C(N)NCCCCNC(=O)Cc1ccc(O)cc1`, in series [1], the viability at 24 h, 20 µM was over 75%.

As to `N=C(N)NCCCCNC(=O)Cc1c[nH]c2ccccc12`, the viability at 24 h, 20 µM in series [1] was over 75%. Still for that read-out and setting: for `N=C(N)NCCCCNC(=O)c1ccc(O)cc1` the value was over 75%; for `N=C(N)NCCCCNC(=O)c1ccccc1`, over 75%; for `N=C(N)NCCCCNC(=O)Cc1ccccc1`, over 75%. In the case of `COc1cc(CC(=O)NCCCCNC(=N)N)ccc1O`, the outcome in the series with Mitochondrial membrane, in the series on BV-2 [3], in the series with BV-2 [4] and in the series with BV-2 [5] was Active. In series [1], the viability at 24 h, 20 µM was over 75%. Turning to `CC(=O)CC(C)(C)n1cnc2c(=O)[nH]cnc21`, the viability at 24 h, 20 µM in series [1] was over 75%.

In the case of `N=C(N)NCCCCNC(=O)c1c[nH]c2ccccc12`, the viability at 24 h, 20 µM in series [1] is over 75%. Still for that read-out and setting: under `N=C(N)NCCCCNC(=O)Cc1ccc(O)c(Cl)c1` stands over 75%.
